According to the supplement of paper PMC10307832:

How the values were obtained:
Experiment in all cases: relative viability (nuclei count vs DMSO), 5 days (fraction); higher = more cells survive
NCI-H1650 = tested on: NCI-H1650
In short: (§1)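 Nuclei were stained with Hoechst during a one-step fixation (final 0.05% Triton X-100, 1% formaldehyde, 1 ug/ml Hoechst) carried out 5 days after dosing, then counted on 4× images. The cells, lung cancer lines in 1536-well plates, had been dosed by pin tool the day after seeding with one drug alone or a fixed anchor-drug dose plus five library-drug doses (not always all listed) in √10 steps. Relative viability is the nuclei count in treated wells divided by that in vehicle wells, and each value is the median of duplicate plates.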

HCC-44 = tested on: HCC-44
In short: as §1

NCI-H1975 = tested on: NCI-H1975
In short: as §1

NCI-H1792 = tested on: NCI-H1792
In short: as §1

201T = tested on: 201T
In short: as §1

NCI-H441 = tested on: NCI-H441
In short: as §1

SK-MES-1 = tested on: SK-MES-1
In short: as §1

NCI-H23 = tested on: NCI-H23
In short: as §1

BEN = tested on: BEN
In short: as §1

NCI-H596 = tested on: NCI-H596
In short: as §1

HARA = tested on: HARA
In short: as §1

NCI-H358 = tested on: NCI-H358
In short: as §1

HCC-827 = tested on: HCC-827
In short: as §1

COR-L23 = tested on: COR-L23
In short: as §1

NCI-H838 = tested on: NCI-H838
In short: as §1

SW 900 = tested on: SW 900
In short: as §1

EKVX = tested on: EKVX
In short: as §1

NCI-H1437 = tested on: NCI-H1437
In short: as §1

NCI-H2342 = tested on: NCI-H2342
In short: as §1

A-427 = tested on: A-427
In short: as §1

HCC-15 = tested on: HCC-15
In short: as §1

NCI-H650 = tested on: NCI-H650
In short: as §1

Compound: COc1cc2nccc(Oc3ccc(NC(=O)Nc4cc(C)on4)c(Cl)c3)c2cc1OC [Tivozanib] + COc1cccc2cc(-c3nc([C@H]4CC[C@H](C(=O)O)CC4)n4ncnc(N)c34)[nH]c12 [OSI-027] (partner 0.5 µM)
- relative viability (NCI-H1650; first compound 0.005 µM): 0.524
- relative viability (NCI-H1650; first compound 0.01581 µM): 0.746
- relative viability (NCI-H1650; first compound 0.05 µM): 0.709
- relative viability (NCI-H1650; first compound 0.1581 µM): 0.591
- relative viability (NCI-H1650; first compound 0.5 µM): 0.558
- relative viability (HCC-44; first compound 0.005 µM): 0.483
- relative viability (HCC-44; first compound 0.01581 µM): 0.544
- relative viability (HCC-44; first compound 0.05 µM): 0.485
- relative viability (HCC-44; first compound 0.1581 µM): 0.41
- relative viability (HCC-44; first compound 0.5 µM): 0.464
- relative viability (NCI-H1975; first compound 0.005 µM): 0.673
- relative viability (NCI-H1975; first compound 0.01581 µM): 0.634
- relative viability (NCI-H1975; first compound 0.05 µM): 0.709
- relative viability (NCI-H1975; first compound 0.1581 µM): 0.565
- relative viability (NCI-H1975; first compound 0.5 µM): 0.475
- relative viability (NCI-H1792; first compound 0.005 µM): 0.665
- relative viability (NCI-H1792; first compound 0.01581 µM): 0.633
- relative viability (NCI-H1792; first compound 0.05 µM): 0.68
- relative viability (NCI-H1792; first compound 0.1581 µM): 0.728
- relative viability (NCI-H1792; first compound 0.5 µM): 0.746
- relative viability (201T; first compound 0.005 µM): 0.777
- relative viability (201T; first compound 0.01581 µM): 0.798
- relative viability (201T; first compound 0.05 µM): 0.36
- relative viability (201T; first compound 0.1581 µM): 0.572
- relative viability (201T; first compound 0.5 µM): 0.709
- relative viability (NCI-H441; first compound 0.005 µM): 0.453
- relative viability (NCI-H441; first compound 0.01581 µM): 0.506
- relative viability (NCI-H441; first compound 0.05 µM): 0.78
- relative viability (NCI-H441; first compound 0.1581 µM): 0.563
- relative viability (NCI-H441; first compound 0.5 µM): 0.344
- relative viability (SK-MES-1; first compound 0.005 µM): 0.515
- relative viability (SK-MES-1; first compound 0.01581 µM): 0.573
- relative viability (SK-MES-1; first compound 0.05 µM): 0.7
- relative viability (SK-MES-1; first compound 0.1581 µM): 0.515
- relative viability (SK-MES-1; first compound 0.5 µM): 0.583
- relative viability (NCI-H23; first compound 0.005 µM): 0.578
- relative viability (NCI-H23; first compound 0.01581 µM): 0.595
- relative viability (NCI-H23; first compound 0.05 µM): 0.671
- relative viability (NCI-H23; first compound 0.1581 µM): 0.355
- relative viability (NCI-H23; first compound 0.5 µM): 0.367
- relative viability (BEN; first compound 0.005 µM): 0.281
- relative viability (BEN; first compound 0.01581 µM): 0.306
- relative viability (BEN; first compound 0.05 µM): 0.311
- relative viability (BEN; first compound 0.1581 µM): 0.298
- relative viability (BEN; first compound 0.5 µM): 0.318
- relative viability (NCI-H596; first compound 0.005 µM): 0.681
- relative viability (NCI-H596; first compound 0.01581 µM): 0.596
- relative viability (NCI-H596; first compound 0.05 µM): 0.866
- relative viability (NCI-H596; first compound 0.5 µM): 0.59
- relative viability (HARA; first compound 0.005 µM): 0.549
- relative viability (HARA; first compound 0.01581 µM): 0.481
- relative viability (HARA; first compound 0.05 µM): 0.65
- relative viability (HARA; first compound 0.1581 µM): 0.196
- relative viability (HARA; first compound 0.5 µM): 0.28
- relative viability (NCI-H358; first compound 0.005 µM): 0.751
- relative viability (NCI-H358; first compound 0.01581 µM): 0.776
- relative viability (NCI-H358; first compound 0.05 µM): 0.674
- relative viability (NCI-H358; first compound 0.1581 µM): 0.332
- relative viability (NCI-H358; first compound 0.5 µM): 0.727
- relative viability (HCC-827; first compound 0.005 µM): 0.74
- relative viability (HCC-827; first compound 0.01581 µM): 0.693
- relative viability (HCC-827; first compound 0.05 µM): 0.766
- relative viability (HCC-827; first compound 0.1581 µM): 0.621
- relative viability (HCC-827; first compound 0.5 µM): 0.763
- relative viability (COR-L23; first compound 0.005 µM): 0.74
- relative viability (COR-L23; first compound 0.01581 µM): 0.715
- relative viability (COR-L23; first compound 0.05 µM): 0.799
- relative viability (COR-L23; first compound 0.1581 µM): 0.617
- relative viability (COR-L23; first compound 0.5 µM): 0.647
- relative viability (NCI-H838; first compound 0.005 µM): 0.364
- relative viability (NCI-H838; first compound 0.01581 µM): 0.404
- relative viability (NCI-H838; first compound 0.05 µM): 0.357
- relative viability (NCI-H838; first compound 0.5 µM): 0.38
- relative viability (SW 900; first compound 0.005 µM): 0.556
- relative viability (SW 900; first compound 0.01581 µM): 0.501
- relative viability (SW 900; first compound 0.05 µM): 0.641
- relative viability (SW 900; first compound 0.1581 µM): 0.301
- relative viability (SW 900; first compound 0.5 µM): 0.518
- relative viability (EKVX; first compound 0.005 µM): 0.665
- relative viability (EKVX; first compound 0.01581 µM): 0.735
- relative viability (EKVX; first compound 0.05 µM): 0.67
- relative viability (EKVX; first compound 0.1581 µM): 0.585
- relative viability (EKVX; first compound 0.5 µM): 0.731
- relative viability (NCI-H1437; first compound 0.005 µM): 0.887
- relative viability (NCI-H1437; first compound 0.01581 µM): 0.843
- relative viability (NCI-H1437; first compound 0.05 µM): 0.946
- relative viability (NCI-H1437; first compound 0.1581 µM): 0.661
- relative viability (NCI-H1437; first compound 0.5 µM): 0.837
- relative viability (NCI-H2342; first compound 0.005 µM): 0.67
- relative viability (NCI-H2342; first compound 0.01581 µM): 0.556
- relative viability (NCI-H2342; first compound 0.05 µM): 0.644
- relative viability (NCI-H2342; first compound 0.5 µM): 0.562
- relative viability (A-427; first compound 0.005 µM): 0.458
- relative viability (A-427; first compound 0.01581 µM): 0.492
- relative viability (A-427; first compound 0.05 µM): 0.552
- relative viability (A-427; first compound 0.1581 µM): 0.434
- relative viability (A-427; first compound 0.5 µM): 0.368
- relative viability (HCC-15; first compound 0.005 µM): 0.547
- relative viability (HCC-15; first compound 0.01581 µM): 0.672
- relative viability (HCC-15; first compound 0.05 µM): 0.711
- relative viability (HCC-15; first compound 0.1581 µM): 0.571
- relative viability (HCC-15; first compound 0.5 µM): 0.61
- relative viability (NCI-H650; first compound 0.005 µM): 0.489
- relative viability (NCI-H650; first compound 0.01581 µM): 0.577
- relative viability (NCI-H650; first compound 0.05 µM): 0.613
- relative viability (NCI-H650; first compound 0.1581 µM): 0.44
- relative viability (NCI-H650; first compound 0.5 µM): 0.398
